Numbers after ± are expanded uncertainties.
Legend:
[1] = xn = mol fraction of the nth substance listed; settings: 101 kPa, Liquid, Vibrating tube method
[2] = excess molar enthalpy (molar enthalpy of mixing); xn = mol fraction of the nth substance listed; settings: 291.15 K, 101 kPa, Liquid, Calvet calorimetry

CCCOC(C)=O [propyl ethanoate] + CCCCCCC
[1]
Settings	mass density [kg/m3]
291.15 K, x1 = 0.0086	686.6 ± 0.3
291.15 K, x1 = 0.032	690.1 ± 0.3
291.15 K, x1 = 0.0864	698.2 ± 0.3
291.15 K, x1 = 0.1706	711.3 ± 0.3
291.15 K, x1 = 0.2573	725.7 ± 0.3
291.15 K, x1 = 0.3308	738.6 ± 0.3
291.15 K, x1 = 0.3974	750.9 ± 0.3
291.15 K, x1 = 0.4644	763.7 ± 0.3
291.15 K, x1 = 0.5398	778.9 ± 0.3
291.15 K, x1 = 0.6055	792.8 ± 0.3
291.15 K, x1 = 0.6723	807.4 ± 0.3
291.15 K, x1 = 0.7257	819.6 ± 0.3
291.15 K, x1 = 0.8	837.2 ± 0.3
291.15 K, x1 = 0.8457	848.5 ± 0.4
291.15 K, x1 = 0.9057	864 ± 0.4
291.15 K, x1 = 0.9708	881.6 ± 0.4
291.15 K, x1 = 1	889.6 ± 0.2
298.15 K, x1 = 0.0149	681.8 ± 0.3
298.15 K, x1 = 0.0308	684 ± 0.3
298.15 K, x1 = 0.0953	693.5 ± 0.3
298.15 K, x1 = 0.168	704.8 ± 0.3
298.15 K, x1 = 0.2358	715.8 ± 0.3
298.15 K, x1 = 0.3084	728.2 ± 0.3
298.15 K, x1 = 0.375	740.2 ± 0.3
298.15 K, x1 = 0.4386	752.1 ± 0.3
298.15 K, x1 = 0.5062	765.3 ± 0.3
298.15 K, x1 = 0.5643	777.2 ± 0.3
298.15 K, x1 = 0.6488	795.2 ± 0.3
298.15 K, x1 = 0.6684	799.5 ± 0.3
298.15 K, x1 = 0.7446	816.9 ± 0.3
298.15 K, x1 = 0.793	828.4 ± 0.3
298.15 K, x1 = 0.8688	847.3 ± 0.4
298.15 K, x1 = 0.91	858 ± 0.4
298.15 K, x1 = 0.9508	868.8 ± 0.4
298.15 K, x1 = 1	882.5 ± 0.2
318.15 K, x1 = 0.0291	666.1 ± 0.3
318.15 K, x1 = 0.0843	673.9 ± 0.3
318.15 K, x1 = 0.1595	685.1 ± 0.3
318.15 K, x1 = 0.23	696.3 ± 0.3
318.15 K, x1 = 0.2972	707.3 ± 0.3
318.15 K, x1 = 0.3638	718.8 ± 0.3
318.15 K, x1 = 0.4295	730.8 ± 0.3
318.15 K, x1 = 0.4902	742.3 ± 0.3
318.15 K, x1 = 0.553	754.6 ± 0.3
318.15 K, x1 = 0.6057	765.4 ± 0.3
318.15 K, x1 = 0.6734	779.8 ± 0.3
318.15 K, x1 = 0.726	791.4 ± 0.3
318.15 K, x1 = 0.7727	802.1 ± 0.3
318.15 K, x1 = 0.7949	807.7 ± 0.3
318.15 K, x1 = 0.8645	824.4 ± 0.3
318.15 K, x1 = 0.9242	839.3 ± 0.4
318.15 K, x1 = 1	859.8 ± 0.2
328.15 K, x1 = 0.0373	658.5 ± 0.3
328.15 K, x1 = 0.0866	665.4 ± 0.3
328.15 K, x1 = 0.1645	676.8 ± 0.3
328.15 K, x1 = 0.2401	688.6 ± 0.3
328.15 K, x1 = 0.3096	700 ± 0.3
328.15 K, x1 = 0.3783	711.8 ± 0.3
328.15 K, x1 = 0.4478	724.3 ± 0.3
328.15 K, x1 = 0.5142	736.8 ± 0.3
328.15 K, x1 = 0.5756	748.9 ± 0.3
328.15 K, x1 = 0.6377	761.7 ± 0.3
328.15 K, x1 = 0.6884	772.5 ± 0.3
328.15 K, x1 = 0.756	787.5 ± 0.3
328.15 K, x1 = 0.8074	799.5 ± 0.3
328.15 K, x1 = 0.856	811.2 ± 0.3
328.15 K, x1 = 0.9097	824.7 ± 0.4
328.15 K, x1 = 0.9638	838.7 ± 0.4
328.15 K, x1 = 1	848.3 ± 0.2

[2]
Settings	excess molar enthalpy [kcal/mol]
x1 = 0.0996	0.104 ± 0.00143
x1 = 0.2001	0.181 ± 0.00191
x1 = 0.2956	0.2392 ± 0.00215
x1 = 0.3852	0.2725 ± 0.00239
x1 = 0.4642	0.2849 ± 0.00239
x1 = 0.5309	0.2856 ± 0.00239
x1 = 0.588	0.2746 ± 0.00239
x1 = 0.638	0.2565 ± 0.00215
x1 = 0.656	0.25 ± 0.00215
x1 = 0.7113	0.2266 ± 0.00215
x1 = 0.7717	0.1936 ± 0.00191
x1 = 0.8326	0.153 ± 0.00167
x1 = 0.8942	0.104 ± 0.00167
x1 = 0.9501	0.054 ± 0.00143

Reference: the NIST ThermoML archive (doi:10.1021/je3011979)
